These molecules were tested against T1, human Werner helicase (WRN-BV08, Uniprot Q14191, amino acids 517-1235 with L1074F point mutation) (Homo sapiens, UniProt Q14191, L1074F) (assay: WRN (BV08) ADP-Glo Assay). Conditions: 0.15 nM WRN, 5 μM ATP, 0.1 nM DNA duplex, 15 min preincubation, 60 min at 25° C., pH 7.5, 1% DMSO; read-out: ADP-Glo_hWRN_IC50.
T1 construct: Uniprot Q14191, amino acids 517-1235 with L1074F point mutation; TEV-cleavable 8×His (C, cleaved yes); made in house; host or cells: Sf9 insect cells (baculovirus)
T1 sequence (Q14191 with tags, fused parts or gaps L1074F limits assumed): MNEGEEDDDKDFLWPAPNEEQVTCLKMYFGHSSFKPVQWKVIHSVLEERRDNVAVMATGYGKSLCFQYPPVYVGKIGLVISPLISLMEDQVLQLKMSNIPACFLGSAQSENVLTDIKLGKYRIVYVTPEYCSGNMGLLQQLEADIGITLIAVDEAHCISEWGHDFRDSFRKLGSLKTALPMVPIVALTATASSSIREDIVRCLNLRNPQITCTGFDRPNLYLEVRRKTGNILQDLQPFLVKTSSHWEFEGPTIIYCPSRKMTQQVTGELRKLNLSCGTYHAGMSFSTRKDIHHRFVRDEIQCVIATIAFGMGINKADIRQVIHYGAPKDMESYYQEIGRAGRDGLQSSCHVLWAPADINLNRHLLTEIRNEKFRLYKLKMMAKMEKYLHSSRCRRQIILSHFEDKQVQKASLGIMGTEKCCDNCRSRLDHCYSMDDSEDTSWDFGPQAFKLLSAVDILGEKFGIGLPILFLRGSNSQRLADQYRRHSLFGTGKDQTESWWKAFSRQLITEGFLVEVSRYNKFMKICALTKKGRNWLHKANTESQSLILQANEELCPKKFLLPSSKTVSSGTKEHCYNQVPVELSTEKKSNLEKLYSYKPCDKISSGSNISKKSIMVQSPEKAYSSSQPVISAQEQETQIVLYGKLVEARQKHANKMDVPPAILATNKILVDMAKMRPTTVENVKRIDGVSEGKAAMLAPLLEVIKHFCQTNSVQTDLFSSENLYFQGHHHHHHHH
Assay type: biochemical
Procedure, shortened: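 Percent inhibition was normalised to DMSO (max) and 20 μM NSC-617145 (min) controls from ADP-Glo luminescence, and IC50 values came from a four-parameter fit. The reaction ran 60 min at 25 °C with 0.15 nM WRN, 5 μM ATP and 0.1 nM duplex DNA.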

SMILES | IC50 [µM]
CC(=O)N(C)CC(C(=O)N(Cc1ccncc1)C1C=CS(=O)(=O)C1)c1ccc(-c2ccc(F)cc2)cc1 (stereo not drawn) [I-452, N-(1,1-dioxo-2,3-dihydro-1lambda6-thiophen-3-yl)-2-{4′-fluoro-[1,1′-biphenyl]-4-yl}-3-(N-methylacetamido)-N-[(pyridin-4-yl)methyl]propanamide] | > 50
O=C(C(c1ccc(Cl)cc1)c1ccc(Cl)cc1)N(Cc1ccncc1)C1C=CS(=O)(=O)C1 (stereo not drawn) [I-526, 2,2-bis(4-chlorophenyl)-N-(1,1-dioxo-2,3-dihydro-1lambda6-thiophen-3-yl)-N-[(pyridin-4-yl)methyl]acetamide] | > 50
O=C(Cc1ccc(S(F)(F)(F)(F)F)cc1)N(Cc1ccncc1)C1C=CS(=O)(=O)C1 (single isomer, unassigned) [I-336] | 10 to 50
O=C(Cc1ccc(-n2cccc2)cc1)N(CCc1ccncc1)C1C=CS(=O)(=O)C1 (stereo not drawn) [I-462, N-(1,1-dioxo-2,3-dihydro-1lambda6-thiophen-3-yl)-N-[2-(pyridin-4-yl)ethyl]-2-[4-(1H-pyrrol-1-yl)phenyl]acetamide] | > 50
COc1nc(CN(C(=O)Cc2ccc(S(F)(F)(F)(F)F)cc2)C2C=CS(=O)(=O)C2)cc(N(C)C)n1 (stereo not drawn) [I-634, N-{[6-(dimethylamino)-2-methoxypyrimidin-4-yl]methyl}-N-(1,1-dioxo-2,3-dihydro-1lambda6-thiophen-3-yl)-2-[4-(pentafluoro-lambda6-sulfanyl)phenyl]acetamide] | 5 to 10
N#Cc1cc(-n2cccc2)ccc1CC(=O)N(Cc1ccncc1)C1C=CS(=O)(=O)C1 (stereo not drawn) [I-468, 2-[2-cyano-4-(1H-pyrrol-1-yl)phenyl]-N-(1,1-dioxo-2,3-dihydro-1lambda6-thiophen-3-yl)-N-[(pyridin-4-yl)methyl]acetamide] | > 50
COC(C(=O)N(Cc1ccncc1)C1C=CS(=O)(=O)C1)c1ccc(-c2ccc(F)cc2)cc1 (single isomer, unassigned) [I-476, (2R*)-N-[(3R**)-1,1-dioxo-2,3-dihydro-1lambda6-thiophen-3-yl]-2-{4′-fluoro-[1,1′-biphenyl]-4-yl}-2-methoxy-N-[(pyridin-4-yl)methyl]acetamide] | > 50
O=C(c1cnn(Cc2ccccc2)c1)N(Cc1ccncc1)C1C=CS(=O)(=O)C1 (stereo not drawn) [I-538, 1-benzyl-N-(1,1-dioxo-2,3-dihydro-1lambda6-thiophen-3-yl)-N-[(pyridin-4-yl)methyl]-1H-pyrazole-4-carboxamide] | > 50
O=C(Cc1ccc(S(F)(F)(F)(F)F)cc1)N(Cc1nc(C(F)F)cs1)C1C=CS(=O)(=O)C1 (stereo not drawn) [I-729, N-{[4-(difluoromethyl)-1,3-thiazol-2-yl]methyl}-N-(1,1-dioxo-2,3-dihydro-1lambda6-thiophen-3-yl)-2-[4-(pentafluoro-lambda6-sulfanyl)phenyl]acetamide] | > 50
O=C(Cc1ccc(-n2cccc2)cc1)N(C1C=CS(=O)(=O)C1)C1CCCc2cnccc21 (stereo not drawn) [I-471, N-(1,1-dioxo-2,3-dihydro-1lambda6-thiophen-3-yl)-2-[4-(1H-pyrrol-1-yl)phenyl]-N-(5,6,7,8-tetrahydroisoquinolin-5-yl)acetamide] | > 50
CC(C)(O)c1cc(CN(C(=O)CCc2ccc(S(F)(F)(F)(F)F)cc2)C2C=CS(=O)(=O)C2)ccn1 (single isomer, unassigned) [I-674] | 5 to 10
COc1cc(CN(C(=O)C(OC)c2ccc(C(F)(F)F)cc2)C2C=CS(=O)(=O)C2)ccn1 (stereo not drawn) [I-246, N-(1,1-dioxo-2,3-dihydro-1lambda6-thiophen-3-yl)-2-methoxy-N-[(2-methoxypyridin-4-yl)methyl]-2-[4-(trifluoromethyl)phenyl]acetamide] | 5 to 10
O=C(Cc1ccc(-n2cccc2)cc1)N(Cc1ccc2nccn2c1)C1C=CS(=O)(=O)C1 (stereo not drawn) [I-361, N-(1,1-dioxo-2,3-dihydro-1lambda6-thiophen-3-yl)-N-({imidazo[1,2-a]pyridin-6-yl}methyl)-2-[4-(1H-pyrrol-1-yl)phenyl]acetamide] | 10 to 50
CC(C(=O)N(Cc1ccnc(C(C)(C)O)c1)[C@@H]1C=CS(=O)(=O)C1)n1cc(-c2ccc(C(F)(F)F)cc2)cn1 (single isomer, unassigned) [I-788] | 5 to 10
O=C(Cc1ccc(-c2ccc(F)cc2)cc1C(F)(F)F)N(Cc1ccncc1)C1C=CS(=O)(=O)C1 (stereo not drawn) [I-465, N-(1,1-dioxo-2,3-dihydro-1lambda6-thiophen-3-yl)-2-[4′-fluoro-3-(trifluoromethyl)-[1,1′-biphenyl]-4-yl]-N-[(pyridin-4-yl)methyl]acetamide] | > 50
O=C(Cc1ccc(-n2cccc2)cn1)N(Cc1ccncc1)C1C=CS(=O)(=O)C1 (stereo not drawn) [I-319, N-(1,1-dioxo-2,3-dihydro-1lambda6-thiophen-3-yl)-N-[(pyridin-4-yl)methyl]-2-[5-(1H-pyrrol-1-yl)pyridin-2-yl]acetamide] | 10 to 50
COCC(C(=O)N(Cc1ccnc(C(C)(C)O)c1)C1C=CS(=O)(=O)C1)n1cc(-c2ccccc2)cn1 (stereo not drawn) [I-324, N-(1,1-dioxo-2,3-dihydro-1lambda6-thiophen-3-yl)-N-{[2-(2-hydroxypropan-2-yl)pyridin-4-yl]methyl}-3-methoxy-2-(4-phenyl-1H-pyrazol-1-yl)propanamide] | 10 to 50

Further lines, results first:

IC50 [µM] | SMILES
0.5 to 5 | O=C(Cn1cc(-c2ccc(F)cc2)cn1)N(Cc1ccnc(OC(F)(F)F)c1)C1C=CS(=O)(=O)C1 (stereo not drawn) [I-753, N-(1,1-dioxo-2,3-dihydro-1lambda6-thiophen-3-yl)-2-[4-(4-fluorophenyl)-1H-pyrazol-1-yl]-N-{[2-(trifluoromethoxy)pyridin-4-yl]methyl}acetamide]
< 0.5 | COC(C(=O)N(Cc1ccnc(C(C)(C)O)c1)C1C=CS(=O)(=O)C1)c1ccc(S(F)(F)(F)(F)F)cc1 (stereo not drawn) [I-81, N-(1,1-dioxido-2,3-dihydrothiophen-3-yl)-N-((2-(2-hydroxypropan-2-yl)pyridin-4-yl)methyl)-2-methoxy-2-(4-(pentafluoro-λ^6-sulfaneyl)phenyl)acetamide]
0.5 to 5 | COc1cc(CN(C(=O)C(O/C=C/S(C)(=O)=O)c2ccc(-c3ccc(F)c(F)c3)cc2F)[C@@H]2C=CS(=O)(=O)C2)ccn1 (stereo partly drawn) [I-793, N-[(3R)-1,1-dioxo-2,3-dihydro-1lambda6-thiophen-3-yl]-2-{[(1E)-2-methanesulfonylethenyl]oxy}-N-[(2-methoxypyridin-4-yl)methyl]-2-{3,3′,4′-trifluoro-[1,1′-biphenyl]-4-yl}acetamide]
< 0.5 | CN(C)C(=O)C(C(=O)N(Cc1ccnc(C(C)(C)O)c1)C1C=CS(=O)(=O)C1)c1ccc(-c2ccc(F)c(F)c2)cc1F (stereo not drawn) [I-24, N′-(1,1-dioxo-2,3-dihydro-1lambda6-thiophen-3-yl)-N′-{[2-(2-hydroxypropan-2-yl)pyridin-4-yl]methyl}-N,N-dimethyl-2-{3,3′,4′-trifluoro-[1,1′-biphenyl]-4-yl}propanediamide]
0.5 to 5 | O=C(Cc1ccc(-n2cccc2)cc1)N(Cc1ccnc(C(F)F)c1)C1C=CS(=O)(=O)C1 (stereo not drawn) [I-187, N-{[2-(difluoromethyl)pyridin-4-yl]methyl}-N-(1,1-dioxo-2,3-dihydro-1lambda6-thiophen-3-yl)-2-[4-(1H-pyrrol-1-yl)phenyl]acetamide]
0.5 to 5 | CN(C)c1cc(CN(C(=O)Cc2ccc(-c3ccc(F)c(F)c3)cc2F)C2C=CS(=O)(=O)C2)ccn1 (stereo not drawn) [I-99, N-{[2-(dimethylamino)pyridin-4-yl]methyl}-N-(1,1-dioxo-2,3-dihydro-1lambda6-thiophen-3-yl)-2-{3,3′,4′-trifluoro-[1,1′-biphenyl]-4-yl}acetamide]
0.5 to 5 | O=C(Cc1ccc(-n2cccc2)cc1)N(Cc1nc(-c2cccnc2)cs1)C1C=CS(=O)(=O)C1 (stereo not drawn) [I-146, N-(1,1-dioxo-2,3-dihydro-1lambda6-thiophen-3-yl)-N-{[4-(pyridin-3-yl)-1,3-thiazol-2-yl]methyl}-2-[4-(1H-pyrrol-1-yl)phenyl]acetamide]
0.5 to 5 | CC(C)(O)c1cc(CN(C(=O)C2CNc3cc(-c4ccc(F)cc4)ccc32)C2C=CS(=O)(=O)C2)ccn1 (stereo not drawn) [I-98, N-(1,1-dioxo-2,3-dihydro-1lambda6-thiophen-3-yl)-6-(4-fluorophenyl)-N-{[2-(2-hydroxypropan-2-yl)pyridin-4-yl]methyl}-2,3-dihydro-1H-indole-3-carboxamide]
< 0.5 | CNC(=O)C(C(=O)N(Cc1ccnc(OC)c1)[C@@H]1C=CS(=O)(=O)C1)c1ccc(-c2ccc(F)c(F)c2)cc1F (single isomer, unassigned) [I-694, (2R*)-N′-[(3R)-1,1-dioxo-2,3-dihydro-1lambda6-thiophen-3-yl]-N′-[(2-methoxypyridin-4-yl)methyl]-N-methyl-2-{3,3′,4′-trifluoro-[1,1′-biphenyl]-4-yl}propanediamide]
< 0.5 | O=C(Cc1ccc(S(F)(F)(F)(F)F)cc1)N(Cc1ccncc1)C1C=CS(=O)(=O)C1 (single isomer, unassigned) [I-51]
0.5 to 5 | CC(C)(O)c1cc(CN(C(=O)Cc2ccc(C3(C(F)(F)F)CC3)cc2)C2C=CS(=O)(=O)C2)ccn1 (single isomer, unassigned) [I-663]
0.5 to 5 | O=C(Cn1cc(-c2ccc(F)c(F)c2)cn1)N(Cc1ccnc(N2CCOCC2)c1)C1C=CS(=O)(=O)C1 (stereo not drawn) [I-759, 2-[4-(3,4-difluorophenyl)-1H-pyrazol-1-yl]-N-(1,1-dioxo-2,3-dihydro-1lambda6-thiophen-3-yl)-N-{[2-(morpholin-4-yl)pyridin-4-yl]methyl}acetamide]
< 0.5 | CC(C)(O)c1cc(CN(C(=O)Cn2cc(-c3cc(F)c(F)c(F)c3)c(F)n2)[C@@H]2C=CS(=O)(=O)C2)ccn1 [I-832, N-[(3R)-1,1-dioxo-2,3-dihydro-1lambda6-thiophen-3-yl]-2-[3-fluoro-4-(3,4,5-trifluorophenyl)-1H-pyrazol-1-yl]-N-{[2-(2-hydroxypropan-2-yl)pyridin-4-yl]methyl}acetamide]

Source: patent US20260297070A1, “CYCLIC [COMPOUND LEFT OUT] WRN INHIBITORS” (Nimbus Wadjet, Inc., priority 2023, published 2026)
